Experimental data taken from EP3440167B2, “FRAGRANCED COMPOSITIONS AND THEIR USE” (Unilever IP Holdings B.V., priority 2016, dated 2017).

Experiments:
Format in all cases: physicochemical
[1] = Example 3: exposure of β-ionone on filter paper in ozone-free glovebox, GC-MS of headspace and extract; details: ozone below detection limit, 1 hour exposure
Procedure: A 0.3% solution of β-ionone in ethanol and a 0.3% solution of β-cyclocitral were prepared. 1 ml of the β-ionone was placed on a piece of filter paper (cellulose, 75 mm dia.) and left for 2 minutes for the ethanol to evaporate. The filter paper was then placed in a glovebox containing an ozone "scrubber" and an ozone monitor (Aeroqual series 200 fitted with a 0 to 0.5 ppm sensor). Throughout the experiment the ozone level inside the glovebox was below the detection limit of the monitor. The ozone scrubber comprised an air pump (Interpet AirVolution AV4), pumping air at a rate of 600 l/hr through 0.75 g/l sodium thiosulphate solution.
After 1 hour exposure the filter paper was sealed in a 500 ml glass jar that had been adapted such that a SPME fibre could be introduced via a septum in the lid. The headspace above the sample was analysed using a Carboxen/DVB/PDMS SPME fibre using a 30 minute exposure. The fibre was then analysed by GC-MS. The filter paper was then removed, placed in a 28 ml glass vial and 3 ml of ethanol added. The vial was rollered for two hours after which the free ethanol was removed and analysed by GC-MS. The β-cyclocitral in ethanol solution was also analysed to indicate the appropriate retention time. […]

[2] = Experiment A: ozone chamber exposure of β-ionone on a surface, headspace SPME-GCMS; details: 1 hour exposure
Procedure: A β-ionone solution (10 % w/w in ethanol) was applied to a surface (20 microlitres) and was allowed to dry for one hour in a fume cupboard. The surface was then placed at the base of the ozone chamber. The ozone generator plug-in was turned on for the required time at regular intervals to achieve the desired ozone concentration inside the chamber (either 250 ppb or 350 ppb). After exposure of a surface to ozone for the desired time of 1 hour the surface was removed from the chamber and placed in a capped PVC container. The surface was left in the PVC container for 10 min and then an additional 20 min with an SPME fibre exposed to the head-space environment of the container. The headspace was measured by SPME-GCMS and the ratios of β-cyclocitral to β-ionone determined as follows: […]

[3] = Experiment B: ozone chamber exposure at 100 ppb over time, headspace SPME-GCMS; details: 100 ppb ozone
Procedure: A β-ionone solution (10 % w/w in ethanol) was applied to a surface (20 microlitres) and was allowed to dry for one hour in a fume cupboard. The surface was then placed at the base of the ozone chamber. The ozone generator plug-in was turned on for the required time at regular intervals to achieve the desired ozone concentration inside the chamber (either 250 ppb or 350 ppb). After exposure of a surface to ozone for the desired time of 1 hour the surface was removed from the chamber and placed in a capped PVC container. The surface was left in the PVC container for 10 min and then an additional 20 min with an SPME fibre exposed to the head-space environment of the container. The headspace was measured by SPME-GCMS and the ratios of β-cyclocitral to β-ionone determined as follows:
This experiment was run like Experiment A, except that the ozone level used was 100 ppb and after 1,2,3,4 and 5 hours measurements of headspace were made and the ratios of β-cyclocitral / β-ionone were calculated from headspace concentration.

CC(=O)/C=C/C1=C(C)CCCC1(C)C [β-ionone]
β-cyclocitral detected in the headspace ([1]; SPME GC-MS of headspace): No β-cyclocitral was detected
β-cyclocitral detected on the filter paper ([1]; ethanol extract of filter paper, GC-MS): No β-cyclocitral was detected
ratio of β-cyclocitral to β-ionone ([2]; 250 ppb ozone): 0.72
ratio of β-cyclocitral to β-ionone ([2]; 350 ppb ozone): 2.67
ratio of β-cyclocitral / β-ionone ([3]; 1 hour): 0.43
ratio of β-cyclocitral / β-ionone ([3]; 2 hour): 0.95
ratio of β-cyclocitral / β-ionone ([3]; 3 hour): 1.87
ratio of β-cyclocitral / β-ionone ([3]; 4 hour): 7.00
ratio of β-cyclocitral / β-ionone ([3]; 5 hour): 11.00
